Experiments:
[1] = molecular target: T1, Amy13K ΔCBMa-e (Agathobacter rectalis, UniProt A0ABF7PGZ5); test: isothermal titration calorimetry of hydrolysis; format: biochemical; details: 37 °C; only kcat/KM printed
T1 sequence (A0ABF7PGZ5 621-1364 limits assumed): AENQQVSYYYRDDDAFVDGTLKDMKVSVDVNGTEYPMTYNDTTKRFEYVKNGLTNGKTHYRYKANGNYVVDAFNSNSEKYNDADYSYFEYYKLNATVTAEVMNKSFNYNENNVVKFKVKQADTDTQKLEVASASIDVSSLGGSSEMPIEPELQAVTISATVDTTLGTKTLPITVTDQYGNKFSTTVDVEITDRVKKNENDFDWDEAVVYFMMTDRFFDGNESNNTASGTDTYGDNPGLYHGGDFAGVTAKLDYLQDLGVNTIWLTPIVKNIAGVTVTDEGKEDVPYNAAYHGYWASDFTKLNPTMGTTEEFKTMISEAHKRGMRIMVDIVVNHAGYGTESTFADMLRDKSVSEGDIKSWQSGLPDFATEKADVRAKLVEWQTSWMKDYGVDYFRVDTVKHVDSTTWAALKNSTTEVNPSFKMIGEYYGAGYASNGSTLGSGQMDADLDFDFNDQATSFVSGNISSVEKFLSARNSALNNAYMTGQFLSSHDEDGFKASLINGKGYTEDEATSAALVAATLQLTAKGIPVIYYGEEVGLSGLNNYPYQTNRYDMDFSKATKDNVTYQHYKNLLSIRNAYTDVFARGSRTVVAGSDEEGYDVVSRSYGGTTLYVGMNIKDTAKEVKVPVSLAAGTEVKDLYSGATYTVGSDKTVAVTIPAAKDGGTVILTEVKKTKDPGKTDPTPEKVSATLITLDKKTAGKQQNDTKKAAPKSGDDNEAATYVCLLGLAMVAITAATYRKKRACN

[2] = molecular target: T2, Amy13K WT (Agathobacter rectalis, UniProt A0ABF7PGZ5); test: isothermal titration calorimetry of hydrolysis; format: biochemical; details: 37 °C; only kcat/KM printed
T2 sequence (A0ABF7PGZ5 44-1364): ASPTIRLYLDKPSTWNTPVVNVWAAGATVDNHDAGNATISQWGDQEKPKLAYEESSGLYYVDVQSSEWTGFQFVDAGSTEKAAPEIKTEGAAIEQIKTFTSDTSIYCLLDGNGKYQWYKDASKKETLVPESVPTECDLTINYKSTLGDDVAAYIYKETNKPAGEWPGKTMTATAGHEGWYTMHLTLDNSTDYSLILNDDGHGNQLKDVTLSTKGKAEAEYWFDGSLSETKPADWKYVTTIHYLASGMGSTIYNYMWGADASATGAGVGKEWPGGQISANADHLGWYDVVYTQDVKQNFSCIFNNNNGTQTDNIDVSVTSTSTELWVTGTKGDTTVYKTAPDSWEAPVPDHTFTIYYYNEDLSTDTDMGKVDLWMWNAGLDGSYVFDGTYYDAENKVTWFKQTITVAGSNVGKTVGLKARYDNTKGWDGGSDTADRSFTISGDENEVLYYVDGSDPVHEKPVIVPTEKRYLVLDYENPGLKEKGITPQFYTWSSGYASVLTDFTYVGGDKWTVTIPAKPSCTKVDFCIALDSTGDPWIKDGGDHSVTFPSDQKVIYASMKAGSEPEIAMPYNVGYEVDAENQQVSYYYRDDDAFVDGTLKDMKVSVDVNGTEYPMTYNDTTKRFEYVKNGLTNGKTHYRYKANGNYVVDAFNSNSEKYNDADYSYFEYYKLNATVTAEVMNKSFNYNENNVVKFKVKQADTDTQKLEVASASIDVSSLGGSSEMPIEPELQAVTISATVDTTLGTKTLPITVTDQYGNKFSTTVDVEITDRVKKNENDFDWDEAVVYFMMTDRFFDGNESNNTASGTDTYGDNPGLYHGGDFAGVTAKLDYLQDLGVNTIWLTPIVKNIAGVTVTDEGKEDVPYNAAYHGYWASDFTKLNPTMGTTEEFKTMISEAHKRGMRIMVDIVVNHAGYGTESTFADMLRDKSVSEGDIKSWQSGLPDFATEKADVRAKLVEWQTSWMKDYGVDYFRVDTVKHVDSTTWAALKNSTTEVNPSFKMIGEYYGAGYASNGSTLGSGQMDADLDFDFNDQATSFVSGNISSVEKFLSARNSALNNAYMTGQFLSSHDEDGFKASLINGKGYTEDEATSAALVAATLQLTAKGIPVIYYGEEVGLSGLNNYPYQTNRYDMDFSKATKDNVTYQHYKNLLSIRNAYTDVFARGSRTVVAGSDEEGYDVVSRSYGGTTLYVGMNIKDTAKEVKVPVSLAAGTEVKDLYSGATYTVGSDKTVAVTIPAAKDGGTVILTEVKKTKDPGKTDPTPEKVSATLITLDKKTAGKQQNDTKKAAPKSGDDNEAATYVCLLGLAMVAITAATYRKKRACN

## OC[C@H]1O[C@H](O[C@H]2[C@H](O)[C@@H](O)[C@@H](O[C@H]3[C@H](O)[C@@H](O)[C@@H](O[C@H]4[C@H](O)[C@@H](O)[C@@H](O[C@H]5[C@H](O)[C@@H](O)[C@@H](O[C@H]6[C@H](O)[C@@H](O)[C@@H](O[C@H]7[C@H](O)[C@@H](O)C(O)O[C@@H]7CO)O[C@@H]6CO)O[C@@H]5CO)O[C@@H]4CO)O[C@@H]3CO)O[C@@H]2CO)[C@H](O)[C@@H](O)[C@@H]1O (some centres unmarked) [maltoheptaose]
[1]
  isothermal titration calorimetry of hydrolysis: The catalytic efficiency of the WT and ΔCBMa-e on maltoheptaose are
[2]
  isothermal titration calorimetry of hydrolysis: The catalytic efficiency of the WT and ΔCBMa-e on maltoheptaose are

— article PMC6939882 (Molecular microbiology, 2017)
